Test system: HRBC (Human Red Blood Cells)
Test: Cellular uptake of acetylsalicylic acid in red blood cells by 1H HR-MAS NMR with shift agent Dy-BOPTA
Format: in vitro ADME
Text: Determination of Cellular Uptake of Acetylsalicylic Acid in Red Blood Cells
In this example, EXO=Acetylsalicylic acid; SA=Dy-BOPTA (Dy is the symbol of Dysprosium, one of the lanthanides known as shift agent).
The nucleus used to determine Acetylsalicylic acid cellular uptake is the proton.
The in vitro determination has been preformed on HRBC obtained by human blood treated as described below.
Centrifugation: the employed centrifuge was HERAEUS SEPATECH OMNIFUGE 2 ORS, rotor model 3360. Centrifugation was done at 2109 g (equivalent to 3500 rpm) at 4° C. for 15 minutes.
Living HRBC preparation: human blood (to which sodium citrate has been added as an anticoagulant) was centrifuged. After that, HRBC pellets were separated from serum and white cell interface, carefully obtaining a solution of red cells free of white cells; accordingly, red cells with 80% hematocrit were obtained.
Dy-BOPTA stock solution: a 0.1 M stock solution of Dy-BOPTA was used in all of the measurement to obtain the suitable [SA].
Acetylsalicylic acid stock solution: a 1 M stock solution of ASA containing 0.1 M of DSS (as internal standard for quantitative determination), was used in all of the measurements.
The solution was prepared by dissolving 180.16 mg of ASA and 23.63 mg of DSS in 200 ul of H2O, adding NaOH 2N until dissolution, lowering, if necessary, the pH to 7 with HCl 1N, then filling the volume to 1 ml. In this way two forms of ASA are generated that are below indicated as A and B.
Acetylsalicylic acid in HRBC: a sample containing 1 ml of HRBC (80% hematocrit), 100 μmoles of acetylsalicylic acid (i.e. 100 μl of acetylsalicylic acid stock solution) and 8 μmoles of Dy-BOPTA (i.e. 80 μl of Dy-BOPTA stock solution) was employed to measure the uptake of acetylsalicylic acid in HRBC.
Proton ^1H NMR spectra: all the ^1H NMR spectra have been acquired on a Bruker AMX 600 SB spectrometer at the frequency of 600.13 MHz. A multinuclear HR-MAS probehead with double bearing and 4 mm rotor with 12 μl spherical insert have been employed. Experimental conditions were: sample rotating speed=3500 Hz; spectra width=12,000 Hz (c.a. 20 ppm); time domain data points=128 K; number of scans=16; pulse length=11.7 μs; recycle delay=10 s; CPMG sequence; Fourier Transform by 0.5 Hz of enhancement multiplication function, sample temperature=25° C.
Proton spectra have been employed to determine acetylsalicylic acid cellular uptake, because ^1H is the sole nucleus present in acetylsalicylic acid having a high NMR sensitivity. […] Both of the two signals are marker^EXO signals.
The measurement of cellular uptake of acetylsalicylic acid by HRBC was calculated from the spectra reported in the enclosed FIG. 7.
Firstly, the ^1H NMR-MAS spectrum of HRBC was acquired (FIG. 7—trace a) in the absence of either acetylsalicylic acid (EXO) or of Dy-BOPTA (SA).
Then, 100 μl of acetylsalicylic acid 1M stock solution were added and the spectrum repeated (FIG. 7—trace b). In spectrum of trace b the two components for each signal A and B of the methyl group of acetylsalicylic acid were well visible, i.e. four peaks exist in the proton MAS-NMR spectrum. The splitting of signals A and B induces to suppose that the molecules of acetylsalicylic acid in the extra- and intra-cellular compartments are in magnetically different environments, i.e. the four observed signals corresponded to signals A e B into intra- and extra-cellular compartments, respectively.
Lastly, 80 μl of Dy-BOPTA stock solution were also added to the sample and the spectrum were again re-acquired (FIG. 7—trace c). […] Two components resulted unshifted with respect to the original marker^EXO signals while the other two components were shifted.
Acetylsalicylic acid corresponding to the unshifted marker^EXO signals is ACETYLSALICYLIC ACIDCC≠SA, i.e. acetylsalicylic acid in the intra-cellular compartment. […]

In the case of `CC(=O)Oc1ccccc1C(=O)O` [acetylsalicylic acid], the “% of cellular uptake of acetylsalicylic acid A” value (form A, HRBC) is reported as 3.04%, the “concentration of acetylsalicylic acid o (A)” value (form A, extracellular fluid volume 0.38 ml) is reported as 154100 µM and the “μmoles acetylsalicylic acid o (A), amount in extra-cellular compartment” value (form A, extracellular, 1 ml HRBC 80% hematocrit, 100 μmoles ASA added, 8 μmoles Dy-BOPTA, 25° C.) is reported as 58.56 µmol. The “concentration of acetylsalicylic acid i (A)” value (form A, intracellular fluid volume 0.8 ml) was 4830 µM, the “μmoles acetylsalicylic acid i (A), amount in intra-cellular compartment” value (form A, intracellular, 1 ml HRBC 80% hematocrit, 100 μmoles ASA added, 8 μmoles Dy-BOPTA, 25° C.) was 3.87 µmol and the “[acetylsalicylic acid]o/[acetylsalicylic acid]i (A)” value (form A, ratio of extra- to intra-cellular concentration) was 31.90. The “% of cellular uptake of acetylsalicylic acid B” value (form B, HRBC) was 10.40%, the “concentration of acetylsalicylic acid o (B)” value (form B, extracellular fluid volume 0.38 ml) was 79440 µM and the “μmoles acetylsalicylic acid o (B), amount in extra-cellular compartment” value (form B, extracellular, 1 ml HRBC 80% hematocrit, 100 μmoles ASA added, 8 μmoles Dy-BOPTA, 25° C.) was 30.19 µmol. The “concentration of acetylsalicylic acid i (B)” value (form B, intracellular fluid volume 0.8 ml) was 9220 µM, the “μmoles acetylsalicylic acid i (B), amount in intra-cellular compartment” value (form B, intracellular, 1 ml HRBC 80% hematocrit, 100 μmoles ASA added, 8 μmoles Dy-BOPTA, 25° C.) was 7.38 µmol and the “[acetylsalicylic acid]o/[acetylsalicylic acid]i (B)” value (form B, ratio 79.44/9.22 of extra- to intra-cellular concentration) was 8.61. For the same molecule, the “% of cellular uptake of total acetylsalicylic acid” value (forms A + B, HRBC) was 5.67%.
